Experimental findings from patent EP0299434B1, “High pH recovery of neutral amino acids” (GENENCOR INTERNATIONAL, INC., priority 1987, dated 1989) are described below.

This series is described as follows: solution pKa (pH at which the solubility versus pH curve changes slope). The class given is physicochemical. The source says: The theoretical pKa of a neutral amino acid is a rigorously defined parameter which is independent of temperature and the presence of other components. In accordance with the present invention, the important pKa is the solution pKa which takes into account the actual characteristics of the solution. Thus, the pKa of the neutral amino acid in the actual solution from which it is desired to precipitate the amino acid must be measured. The "solution pKa" is the pH at which the solubility versus pH curve for the solution in question changes slope. For example, if the log of the concentration at saturation is plotted versus pH, two straight line portions of the curve will be noted. The intersection of these straight line portions when extended is considered to be the solution pKa of this solution under the conditions of the test. The solution pKa will depend on the other components in the solution, for example the base that might be present, the temperature and other factors.

Turning to `N[C@@H](Cc1c[nH]c2ccccc12)C(=O)O` [tryptophan], the pKa was roughly 8.9 (ion exchange eluate concentrated by reverse osmosis, 37°C, ion exchange eluate concentrated by reverse osmosis (Example 4)); roughly 8.2 (ion exchange eluate evaporated at 60°C, ion exchange eluate evaporated at 60°C (Example 6)); 9 (ion exchange eluate redissolved with ammonium hydroxide, 30°C, ammonia stripping); 8.8 (ion exchange eluate redissolved with ammonium hydroxide, 39°C, ammonia stripping); 8.4 (ion exchange eluate redissolved with ammonium hydroxide, 55°C, ammonia stripping); roughly 9.2 (saturation curve of Fig. 1).
